In patent US20020041889A1, “ENHANCING AGENT FOR DEGRADATION OF DESMOSOMES OR STRATUM CORNEUM DESQUAMATION” (priority 1997, published 2002):

Test system: desmoglein in a stratum corneum sheet (decomposition by trypsin-like and chymotrypsin-like enzymes)
Test: Percentage of residual desmoglein in stratum corneum sheets (SDS-PAGE / immunoblot with anti-desmoglein antibody)
Assay type: biochemical, human
Settings: stratum corneum sheet (2 mg) from healthy subjects coated with 5 μl of a 5% aqueous solution of test compound; moisture content not greater than 30%; 37° C. for one week; average of three measurements; control = 100.00
Procedure: Method of Evaluation (the percentage of residual desmoglein in stratum corneum sheets) This method of evaluation serves to evaluate the degree of decomposition of desmoglein in a stratum corneum sheet by trypsin-like and chymotrypsin-like enzymes, i.e., the degree of stratum corneum desquamation. […] Stratum corneum sheets were peeled from healthy subjects and soaked in an antiseptic and fungicidal solution (containing 60 μl/ml of kanamycin and 0.5% NaN3) for 30 seconds. Both sides of a stratum corneum sheet weighing 2 mg were coated with 5 μl of a 5% aqueous solution containing each of the test compounds shown in Table I below. A stratum corneum sheet coated with an aqueous solution containing no test compound was regarded as a control. These stratum corneum sheets were subjected to the following procedure. The stratum corneum sheets prepared in the above-described manner were placed under such conditions that the stratum corneum would have a moisture content of not greater than 30% at which the degradation of desmosomes was insufficient, and allowed to stand at 37° C. for one week. Thereafter, using 0.5 ml of a 0.1 M Tris buffer (pH 9) containing 9 M urea, 2% SDS and 1% mercaptoethanol, each of the stratum corneum sheets was extracted at 37° C. for 15 hours. Then, 0.7 ml of a sample buffer for SDS-PAGE (a two-fold concentrated Laemmli solution) was added to the resulting extract and heated for 15 minutes. 10 μl of this solution was taken and subjected to electrophoresis in a gel having a concentration of 7.5%. After electrophoresis, the proteins were transferred to a PVDF membrane and immunologically stained with an anti-desmoglein antibody and alkaline phosphatase-labelled secondary (anti-mouse lg) antibody. Then, the labelled protein was visualized with NBT/BCIP substrate. Thus, the amount of the desired protein was determined. Then, the above evaluation process was repeated except that the above-mentioned 5% aqueous solution of each of the test compounds was replaced with an aqueous solution which had been adjusted to contain 0.1% of L-alanine and 2.9% of N,N,N-trimethylglycine.

SMILES	Percentage of residual desmoglein [%]
CC(N)C(=O)O (racemic) [DL-Alanine]	54.55
NC(CO)C(=O)O (racemic) [DL-Serine]	69.44
C[C@@H](O)[C@H](N)C(=O)O (racemic) [DL-Threonine]	97.50
O=C(O)[C@@H]1CC(O)CN1 (stereo partly drawn) [4-Hydroxy-L-proline]	83.04
NCC(=O)O [Glycine]	84.13
N[C@@H](CO)C(=O)O [L-Serine]	58.41
C[C@@H](O)[C@H](N)C(=O)O [L-Threonine]	90.91
C[N+](C)(C)CC(=O)[O-] [N,N,N-Trimethylglycine]	86.08
CCCCCCCCCCCC(=O)NCC(=O)[O-].[K+] [N-Dodecanoylglycine potassium salt]	78.58
